What was measured:
[1] = system: cell extracts (NAD+-dependent secondary alcohol dehydrogenase); test: sec-alcohols to methyl ketones by cell extracts of yeasts, gas chromatography; assay type: biochemical, Torulopsis sp. strain A1 NRRL-Y-11,419; details: grown on methanol
[2] = system: Hansenula polymorpha ATCC 26012; test: sec-alcohols to ketones by cell suspensions of yeasts; assay type: cell-based
[3] = system: secondary alcohol dehydrogenase (SADH), cell-free soluble extract; details: Growth Substrate CH3 OH
Protocol: To prepare the cell-free secondary alcohol dehydrogenase (SADH) system, the washed cells were disrupted with a Wave Energy Ultrasonic Oscillator, Model W201 (Wave Energy System, Inc., Newtown, Pa.) and centrifuged at 20,000×g. for 30 minutes. […] The enzyme activity was measured with a fluorescence spectrophotometer (Perkin Elmer, Model MPF 44A) by following the formation of reduced NAD (EX 340 nm, Em 460 nm). The formation of reduced NAD was also followed with an absorption spectrophotometer at 340 nm. The assay system (3 ml.) contained: potassium phosphate buffer pH 7.0; 150 μmol.; NAD 1 μmol.; a given amount of enzyme preparation; and secondary alcohol 10 μmol. The reaction was started by the addition of substrate. One unit of enzyme activity represents the reduction of one μmole NAD per minute. Protein concentrations were determined by the Lowry method (J. Biol. Chem., 193: 255-275 (1951)).
The experimental procedure for the tests reported in Table VIII were as follows: 1 mg protein of crude extract was added into a 0.5 ml. 0.05 M phosphate buffer (pH 7.0) in a 10-ml. vial. […] The reaction mixture was incubated at 30° C. on a water bath. A 3 μl sample was removed with a syringe at 15 min. of incubation and was assayed with g.l.c. Catalytic activity was also assayed by fluorescence spectrophotometry.

[4] = system: purified secondary alcohol dehydrogenase (SADH); test: substrate specificity and Michaelis constants of purified SADH; assay type: biochemical, Pseudomonas sp. ATCC 21439
[5] = system: Pichia sp. NRRL-Y-11328; test: sec-alcohols to ketones by cell suspensions of yeasts; assay type: cell-based
[6] = system: Kloeckera sp. Strain A2 (NRRLY-11,420); test: as above; assay type: cell-based
[7] = system: Methylosinus sporium 5 (NRRL B-11,197); test: sec-alcohols to ketones by resting cell suspensions; assay type: cell-based
Protocol: (§1) The pH of the nutrient medium was adjusted to 7.0 by the addition of acid or base and 50 ml. samples of the nutrient medium were charged into a plurality of 300 ml. shaker flasks. The shaker flasks were inoculated with an inoculating loop of cells from an agar plate containing homogeneous colonies of the microorganisms on the plate (the purity of the isolates was confirmed by microscopic examination). The isolates had been maintained on methanol (0.4% V/V) agar plates or on agar plates under an atmosphere of methane and air having a 1:1 V/V gas ratio which had been transferred every two weeks. For growth on methanol, the medium was supplemented with 0.4% methanol. For growth on methane, the gaseous phase of the inoculated flasks was replaced with a gas mixture comprised of methane and air having a ratio of 1:1 on a V/V basis. The inoculated flasks were sealed air-tight and were incubated on a rotary shaker of orbital radius 2.5 cm. at 250 rpm and at 30° C. for two days until turbidity in the medium had developed. The cells were harvested by centrifugation at 10,000×g. at 4° C. for 30 minutes. The cell pellet was washed twice with a 0.05 M phosphate buffer at a pH of 7.0 (containing 0.02 M MgCl2). The washed cells were then suspended in a 0.05 M phosphate buffer at pH 7.0.
(§2) A 0.5 ml. sample of each washed cell suspension (2 mg. cells) was put into 10 ml. vials at 4° C. which were sealed with a rubber cap. The gaseous phase of the vials was removed with vacuum and then was replaced with a gas mixture of the substrate reactant (i.e., alkane or secondary alcohol) and oxygen at a 1:1 V/V ratio. (In the case of a liquid substrate, i.e., secondary alcohol, 10 μl of the substrate was put in the 10 ml. vials). […] Samples of product (1-3 μl) were withdrawn periodically with a microsyringe and the products were analyzed by gas chromatography (ionization flame detector column).
(§3) The procedure in Example 1 was repeated wherein a plurality of the methane-utilizing methylotrophic microorganisms were each grown aerobically in a nutrient medium containing methane as the alcohol dehydrogenase enzyme inducer and as the major carbon and energy source for growth. The cells were harvested and washed as described in Example 1. The resting microbial cells of the induced methane-grown methane-utilizing methylotrophic microorganisms were then contacted with C3 -C6 secondary alcohols in a buffered solution by the procedure of Example 1.
(§4) In this example, the procedure in Example 1 was repeated except that a plurality of methane-utilizing methylotrophic microorganisms were each aerobically grown in a methanol-containing nutrient medium instead of a methane-containing medium. The nutrients in the medium were the same as indicated in Example 1 except that 0.4% V/V methanol was used as the alcohol dehydrogenase inducer and major source of carbon and energy for growth. Following growth, the cells were harvested and washed as described in Example 1.
(§5) The resting cells of the induced methanol-grown methylotrophic microorganisms were then contacted with secondary alcohols in a buffered solution by the procedure described in Example 1.

[8] = system: Methylococcus capsulatus, Texas (ATCC 19069); test: as above; assay type: cell-based
Protocol: as §1, §2, §3, §4, §5

[9] = system: Methylomonas methanica S1 (NRRL B-11,199); test: as above; assay type: cell-based
Protocol: as §1, §2, §3, §4, §5

[10] = system: Methylomonas albus BG8 (NRRL B-11,200); test: as above; assay type: cell-based
Protocol: as §1, §2, §3, §4, §5

[11] = system: Methylobacter capsulatus Y (NRRL B-11,201); test: as above; assay type: cell-based
Protocol: as §1, §2, §3, §4, §5

[12] = system: Methylocystis parvus OBBP (NRRL B-11,198); test: as above; assay type: cell-based
Protocol: as §1, §2, §3, §4, §5

[13] = system: cell extracts (NAD+-dependent secondary alcohol dehydrogenase); test: sec-alcohols to methyl ketones by cell extracts of yeasts, gas chromatography; assay type: biochemical, Hansenula polymorpha ATCC 26,012; details: grown on methanol

With CCC(C)O (stereo not shown) [2-Butanol, 2-butanol] the “Conversion Rate, sec-alcohol to methyl ketone” value [1] was 4.9 μmoles/hr/mg Protein, the “Conversion Rate, sec-alcohol to corresponding ketone” value ([2]; Growth Substrate Ethanol) was 4.8 μmoles/hr/mg of protein and the “Conversion Rate, sec-alcohol to corresponding ketone” value ([2]; Growth Substrate Methanol) was 5.8 μmoles/hr/mg of protein. The “Conversion Rate, sec-alcohol to corresponding ketone” value ([2]; Growth Substrate Methylamine) was 4.5 μmoles/hr/mg of protein, the “Conversion Rate, sec-alcohol to corresponding ketone” value ([2]; Growth Substrate Methylformate) was 5.2 μmoles/hr/mg of protein and the “Conversion Rate, sec-alcohol to corresponding ketone” value ([2]; Growth Substrate Propylamine) was 4.0 μmoles/hr/mg of protein. For the same compound, the “Conversion Rate, 2-butanol to 2-butanone” value [3] was 1.8 nmoles/min/mg protein, the “oxidation by purified SADH” value [4] was “highest” and the “Conversion Rate, sec-alcohol to corresponding ketone” value ([5]; Growth Substrate Ethanol) was 6.2 μmoles/hr/mg of protein. For the same compound, the “Conversion Rate, sec-alcohol to corresponding ketone” value ([5]; Growth Substrate Methanol) was 6.8 μmoles/hr/mg of protein, the “Conversion Rate, sec-alcohol to corresponding ketone” value ([5]; Growth Substrate Methylamine) was 5.1 μmoles/hr/mg of protein and the “Conversion Rate, sec-alcohol to corresponding ketone” value ([5]; Growth Substrate Methylformate) was 6.9 μmoles/hr/mg of protein. The “Conversion Rate, sec-alcohol to corresponding ketone” value ([5]; Growth Substrate Propylamine) was 2.1 μmoles/hr/mg of protein, the “Conversion Rate, sec-alcohol to corresponding ketone” value ([6]; Growth Substrate Ethanol) was 5.7 μmoles/hr/mg of protein and the “Conversion Rate, sec-alcohol to corresponding ketone” value ([6]; Growth Substrate Methanol) was 5.9 μmoles/hr/mg of protein. For the same compound, the “Conversion Rate, sec-alcohol to corresponding ketone” value ([6]; Growth Substrate Methylamine) was 5.4 μmoles/hr/mg of protein, the “Conversion Rate, sec-alcohol to corresponding ketone” value ([6]; Growth Substrate Methylformate) was 5.9 μmoles/hr/mg of protein and the “Conversion Rate, sec-alcohol to corresponding ketone” value ([6]; Growth Substrate Propylamine) was 4.2 μmoles/hr/mg of protein. The “Conversion Rates, sec-alcohol to corresponding ketone” value (from here on “Conversion Rates, sec-alcohol”) ([7]; cells grown on methane) was 3.0 μmoles/hr/mg protein, the “Conversion Rates, sec-alcohol” value ([7]; cells grown on methanol) was 3.5 μn moles/hr/mg protein and the “Conversion Rates, sec-alcohol” value ([8]; cells grown on methane) was 0.60 μmoles/hr/mg protein. The “Conversion Rates, sec-alcohol” value ([8]; cells grown on methanol) was 0.70 μn moles/hr/mg protein, the “Conversion Rates, sec-alcohol” value ([9]; cells grown on methane) was 0.39 μmoles/hr/mg protein and the “Conversion Rates, sec-alcohol” value ([9]; cells grown on methanol) was 0.40 μn moles/hr/mg protein. The “Conversion Rates, sec-alcohol” value ([10]; cells grown on methane) was 3.5 μmoles/hr/mg protein, the “Conversion Rates, sec-alcohol” value ([10]; cells grown on methanol) was 3.0 μn moles/hr/mg protein and the “Conversion Rates, sec-alcohol” value ([11]; cells grown on methane) was 0.84 μmoles/hr/mg protein. The “Conversion Rates, sec-alcohol” value ([11]; cells grown on methanol) was 1.5 μn moles/hr/mg protein, the “Conversion Rates, sec-alcohol” value ([12]; cells grown on methane) was 1.1 μmoles/hr/mg protein and the “Conversion Rates, sec-alcohol” value ([12]; cells grown on methanol) was 1.0 μn moles/hr/mg protein. The “Conversion Rate, sec-alcohol to methyl ketone” value [13] was 5.2 μmoles/hr/mg Protein.

For CC(C)O [2-Propanol, 2-propanol], the “Conversion Rate, sec-alcohol to methyl ketone” value [1] was 4.5 μmoles/hr/mg Protein, the “Conversion Rate, sec-alcohol to corresponding ketone” value ([2]; Growth Substrate Ethanol) was 5.0 μmoles/hr/mg of protein and the “Conversion Rate, sec-alcohol to corresponding ketone” value ([2]; Growth Substrate Methanol) was 5.9 μmoles/hr/mg of protein. For the same compound, the “Conversion Rate, sec-alcohol to corresponding ketone” value ([2]; Growth Substrate Methylamine) was 5.2 μmoles/hr/mg of protein, the “Conversion Rate, sec-alcohol to corresponding ketone” value ([2]; Growth Substrate Methylformate) was 5.6 μmoles/hr/mg of protein and the “Conversion Rate, sec-alcohol to corresponding ketone” value ([2]; Growth Substrate Propylamine) was 4.1 μmoles/hr/mg of protein. For the same compound, the “oxidation by purified SADH” value [4] was “highest”, the “Conversion Rate, sec-alcohol to corresponding ketone” value ([5]; Growth Substrate Ethanol) was 4.5 μmoles/hr/mg of protein and the “Conversion Rate, sec-alcohol to corresponding ketone” value ([5]; Growth Substrate Methanol) was 5.2 μmoles/hr/mg of protein. The “Conversion Rate, sec-alcohol to corresponding ketone” value ([5]; Growth Substrate Methylamine) was 4.2 μmoles/hr/mg of protein, the “Conversion Rate, sec-alcohol to corresponding ketone” value ([5]; Growth Substrate Methylformate) was 4.9 μmoles/hr/mg of protein and the “Conversion Rate, sec-alcohol to corresponding ketone” value ([5]; Growth Substrate Propylamine) was 3.2 μmoles/hr/mg of protein. The “Conversion Rate, sec-alcohol to corresponding ketone” value ([6]; Growth Substrate Ethanol) was 4.5 μmoles/hr/mg of protein, the “Conversion Rate, sec-alcohol to corresponding ketone” value ([6]; Growth Substrate Methanol) was 4.8 μmoles/hr/mg of protein and the “Conversion Rate, sec-alcohol to corresponding ketone” value ([6]; Growth Substrate Methylamine) was 4.0 μmoles/hr/mg of protein. The “Conversion Rate, sec-alcohol to corresponding ketone” value ([6]; Growth Substrate Methylformate) was 4.9 μmoles/hr/mg of protein, the “Conversion Rate, sec-alcohol to corresponding ketone” value ([6]; Growth Substrate Propylamine) was 4.0 μmoles/hr/mg of protein and the “Conversion Rates, sec-alcohol” value ([7]; cells grown on methane) was 0.30 μmoles/hr/mg protein. For the same compound, the “Conversion Rates, sec-alcohol” value ([7]; cells grown on methanol) was 0.45 μn moles/hr/mg protein, the “Conversion Rates, sec-alcohol” value ([8]; cells grown on methane) was 0.80 μmoles/hr/mg protein and the “Conversion Rates, sec-alcohol” value ([8]; cells grown on methanol) was 0.75 μn moles/hr/mg protein. The “Conversion Rates, sec-alcohol” value ([9]; cells grown on methane) was 0.40 μmoles/hr/mg protein, the “Conversion Rates, sec-alcohol” value ([9]; cells grown on methanol) was 0.35 μn moles/hr/mg protein and the “Conversion Rates, sec-alcohol” value ([10]; cells grown on methane) was 1.3 μmoles/hr/mg protein. The “Conversion Rates, sec-alcohol” value ([10]; cells grown on methanol) was 1.5 μn moles/hr/mg protein, the “Conversion Rates, sec-alcohol” value ([11]; cells grown on methane) was 0.15 μmoles/hr/mg protein and the “Conversion Rates, sec-alcohol” value ([11]; cells grown on methanol) was 0.52 μn moles/hr/mg protein. The “Conversion Rates, sec-alcohol” value ([12]; cells grown on methane) was 0.32 μmoles/hr/mg protein, the “Conversion Rates, sec-alcohol” value ([12]; cells grown on methanol) was 0.25 μn moles/hr/mg protein and the “Conversion Rate, sec-alcohol to methyl ketone” value [13] was 4.8 μmoles/hr/mg Protein.

— patent US4250259A, “Microbiological production of ketones from C3 -C6 secondary alcohols” (priority 1979, dated 1981)
